{"source": "patent US20190374554A1", "about": "“USE OF OXYGENATED CHOLESTEROL SULFATES (OCS) TO TREAT INFLAMMATORY SKIN DISEASE AND SKIN LESIONS” (Virginia Commonwealth University, priority 2016, published 2019)", "experiment": "Infusion compatibility: 25HC3S diluted in 5% dextrose infusion bag and eluted through infusion sets (potency, osmolality, pH, appearance)", "format": "physicochemical", "settings": "for 24 Hours at 2-8° C. Concentration / 24 Hours at 2-8° C. Osmolality / 24 Hours at 2-8° C. pH / 24 Hours at 25° C. % Remaining Compared to T = 0 / 24 Hours at 25° C. Concentration / 24 Hours at 25° C. Osmolality / 24 Hours at 25° C. pH / T = 0 Conc. / T = 0 Osmolality / T = 0 pH: 5% dextrose bag; for After Storage in Infusion Bag and Collection from Infusion Set % Remaining Compared to T = 0 / After Storage in Infusion Bag and Collection from Infusion Set Concentration / After Storage in Infusion Bag and Collection from Infusion Set Osmolality / After Storage in Infusion Bag and Collection from Infusion Set pH: 5% dextrose, approx. 0.28 mg/mL", "protocol": "A physical and chemical compatibility study was conducted at a 30 mg, 48 mg and 300 mg 25HC3S dose in 5% dextrose and 0.9% sodium chloride infusion bags. Descriptions of the two kinds of infusion sets tested with 25HC3S product diluted in 5% dextrose and 0.9% sodium chloride are listed in Table 15. The tubing in catalog number 2H8480 infusion set was composed of polyvinylchloride (PVC), while the tubing in catalog number 2C8858 was polyethylene lined except for a short pump segment (approximately 12 inches) which was composed of PVC.\n25HC3S for Injection and Vehicle for 25HC3S for Injection, that had been stored at 2-8° C. for approximately 16 months, were used for the compatibility study. After constitution, 30 mg (1.0 mL of constituted product), 48 mg (1.6 mL of constituted product) or 300 mg (10 mL of constituted product) were added to 100 mL infusion bags of 5% dextrose and 0.9% sodium chloride, mixed thoroughly, and stored for 24 hours at room temperature and at 2-8° C. […] Taking into consideration the overfill per infusion bag and the additional volume introduced by adding the constituted 25HC3S product to each bag, the expected concentrations of 25HC3S were 0.28 mg/mL, 0.44 mg/mL, and 2.56 mg/mL in the infusion bags. Two kinds of infusion sets were then attached to the drug containing infusion bags, and the entire contents were eluted through the infusion sets at approximately 50 mL/hour at room temperature. Samples were collected from the 25HC3S prepared infusion bags at T=0 and at 24 hours, and from the total eluent passed through the infusion sets, and tested for 25HC3S concentration using HPLC. Solution visual appearance, osmolality (using method USP<785>), and pH (using method USP<791>) were also measured on the collected samples.", "key": {"[1]": {"settings": "bag 24 h at 2-8° C., Baxter 2C8858"}, "[2]": {"settings": "bag 24 h at 2-8° C., Baxter 2H8480"}, "[3]": {"settings": "bag 24 h at 25° C., Baxter 2C8858"}, "[4]": {"settings": "bag 24 h at 25° C., Baxter 2H8480"}}, "note": "Several values for one entry are separate records, joined by “and”; a condition that tells them apart may be missing. Equal values may be shown once.", "data": [{"compound": "C[C@H](CCCC(C)(C)O)[C@H]1CC[C@H]2[C@@H]3CC=C4C[C@@H](OS(=O)(=O)[O-])CC[C@]4(C)[C@H]3CC[C@]12C.[Na+]", "note": "[Formulation 25HC3S, 5-cholesten-3, 25-diol, 3-sulfate]", "values": [{"measurement": "24 Hours at 2-8° C. Concentration", "setting": "approx. 0.28 mg/mL 25HC3S", "result": 0.280, "unit": "mg/mL"}, {"measurement": "24 Hours at 2-8° C. Osmolality", "setting": "approx. 0.28 mg/mL 25HC3S", "result": "250 mmol/kg and 253 mmol/kg"}, {"measurement": "24 Hours at 2-8° C. pH", "setting": "approx. 0.28 mg/mL 25HC3S", "result": "7.09 and 7.04"}, {"measurement": "24 Hours at 25° C. % Remaining Compared to T = 0", "setting": "approx. 0.28 mg/mL 25HC3S", "result": "(100.0%)"}, {"measurement": "24 Hours at 25° C. Concentration", "setting": "approx. 0.28 mg/mL 25HC3S", "result": "0.276 mg/mL and 0.277 mg/mL"}, {"measurement": "24 Hours at 25° C. Osmolality", "setting": "approx. 0.28 mg/mL 25HC3S", "result": "252 mmol/kg and 249 mmol/kg"}, {"measurement": "24 Hours at 25° C. pH", "setting": "approx. 0.28 mg/mL 25HC3S", "result": "7.12 and 7.05"}, {"measurement": "T = 0 Conc.", "setting": "approx. 0.28 mg/mL 25HC3S", "result": "0.276 mg/mL and 0.277 mg/mL and 0.280 mg/mL and 0.279 mg/mL"}, {"measurement": "T = 0 Osmolality", "setting": "approx. 0.28 mg/mL 25HC3S", "result": "247 mmol/kg and 250 mmol/kg and 251 mmol/kg"}, {"measurement": "T = 0 pH", "setting": "approx. 0.28 mg/mL 25HC3S", "result": "7.09 and 7.03 and 7.10 and 7.04"}, {"measurement": "24 Hours at 2-8° C. Concentration", "setting": "approx. 0.44 mg/mL 25HC3S", "result": "0.438 mg/mL and 0.440 mg/mL"}, {"measurement": "24 Hours at 2-8° C. Osmolality", "setting": "approx. 0.44 mg/mL 25HC3S", "result": "254 mmol/kg and 257 mmol/kg"}, {"measurement": "24 Hours at 2-8° C. pH", "setting": "approx. 0.44 mg/mL 25HC3S", "result": "6.96 and 6.93"}, {"measurement": "24 Hours at 25° C. % Remaining Compared to T = 0", "setting": "approx. 0.44 mg/mL 25HC3S", "result": "(100.0%)"}, {"measurement": "24 Hours at 25° C. Concentration", "setting": "approx. 0.44 mg/mL 25HC3S", "result": "0.447 mg/mL and 0.442 mg/mL"}, {"measurement": "24 Hours at 25° C. Osmolality", "setting": "approx. 0.44 mg/mL 25HC3S", "result": "256 mmol/kg and 253 mmol/kg"}, {"measurement": "24 Hours at 25° C. pH", "setting": "approx. 0.44 mg/mL 25HC3S", "result": "6.91 and 6.90"}, {"measurement": "T = 0 Conc.", "setting": "approx. 0.44 mg/mL 25HC3S", "result": "0.447 mg/mL and 0.442 mg/mL and 0.439 mg/mL"}, {"measurement": "T = 0 Osmolality", "setting": "approx. 0.44 mg/mL 25HC3S", "result": "255 mmol/kg and 254 mmol/kg and 256 mmol/kg"}, {"measurement": "T = 0 pH", "setting": "approx. 0.44 mg/mL 25HC3S", "result": "6.83 and 6.81 and 6.82 and 6.88"}, {"measurement": "24 Hours at 2-8° C. Concentration", "setting": "approx. 2.56 mg/mL 25HC3S", "result": "2.550 mg/mL and 2.530 mg/mL"}, {"measurement": "24 Hours at 2-8° C. Osmolality", "setting": "approx. 2.56 mg/mL 25HC3S", "result": "246 mmol/kg and 251 mmol/kg"}, {"measurement": "24 Hours at 2-8° C. pH", "setting": "approx. 2.56 mg/mL 25HC3S", "result": "6.11 and 6.14"}, {"measurement": "24 Hours at 25° C. Concentration", "setting": "approx. 2.56 mg/mL 25HC3S", "result": "2.470 mg/mL and 2.520 mg/mL"}, {"measurement": "24 Hours at 25° C. Osmolality", "setting": "approx. 2.56 mg/mL 25HC3S", "result": "257 mmol/kg and 250 mmol/kg"}, {"measurement": "24 Hours at 25° C. pH", "setting": "approx. 2.56 mg/mL 25HC3S", "result": "6.12 and 6.06"}, {"measurement": "T = 0 Conc.", "setting": "approx. 2.56 mg/mL 25HC3S", "result": "2.500 mg/mL and 2.510 mg/mL and 2.530 mg/mL and 2.525 mg/mL"}, {"measurement": "T = 0 Osmolality", "setting": "approx. 2.56 mg/mL 25HC3S", "result": "258 mmol/kg and 247 mmol/kg"}, {"measurement": "T = 0 pH", "setting": "approx. 2.56 mg/mL 25HC3S", "result": "6.04 and 6.12 and 6.29 and 6.26"}, {"measurement": "After Storage in Infusion Bag and Collection from Infusion Set % Remaining Compared to T = 0", "setting": "[1]", "result": "(100.4%)"}, {"measurement": "After Storage in Infusion Bag and Collection from Infusion Set Concentration", "setting": "[1]", "result": 0.280, "unit": "mg/mL"}, {"measurement": "After Storage in Infusion Bag and Collection from Infusion Set Osmolality", "setting": "[1]", "result": 252, "unit": "mmol/kg"}, {"measurement": "After Storage in Infusion Bag and Collection from Infusion Set pH", "setting": "[1]", "result": 6.99}, {"measurement": "After Storage in Infusion Bag and Collection from Infusion Set % Remaining Compared to T = 0", "setting": "[2]", "result": "(100.0%)"}, {"measurement": "After Storage in Infusion Bag and Collection from Infusion Set Concentration", "setting": "[2]", "result": 0.280, "unit": "mg/mL"}, {"measurement": "After Storage in Infusion Bag and Collection from Infusion Set Osmolality", "setting": "[2]", "result": 251, "unit": "mmol/kg"}, {"measurement": "After Storage in Infusion Bag and Collection from Infusion Set pH", "setting": "[2]", "result": 6.95}, {"measurement": "After Storage in Infusion Bag and Collection from Infusion Set % Remaining Compared to T = 0", "setting": "[3]", "result": "(100.0%)"}, {"measurement": "After Storage in Infusion Bag and Collection from Infusion Set Concentration", "setting": "[3]", "result": 0.277, "unit": "mg/mL"}, {"measurement": "After Storage in Infusion Bag and Collection from Infusion Set Osmolality", "setting": "[3]", "result": 252, "unit": "mmol/kg"}, {"measurement": "After Storage in Infusion Bag and Collection from Infusion Set pH", "setting": "[3]", "result": 7.04}, {"measurement": "After Storage in Infusion Bag and Collection from Infusion Set % Remaining Compared to T = 0", "setting": "[4]", "result": "(100.0%)"}, {"measurement": "After Storage in Infusion Bag and Collection from Infusion Set Concentration", "setting": "[4]", "result": 0.276, "unit": "mg/mL"}, {"measurement": "After Storage in Infusion Bag and Collection from Infusion Set Osmolality", "setting": "[4]", "result": 252, "unit": "mmol/kg"}]}]}
